Earlier results, collected in publication PMC6931124, “NPY1R-targeted peptide-mediated delivery of a dual PPARα/γ agonist to adipocytes enhances adipogenesis and prevents diabetes progression” (Molecular Metabolism, 2019).

Test system: 12-week-old db/db mice
Settings: ref [100], cited from earlier work
Source text: In contradiction to previous tesa in vivo studies, no major improvements in hyperglycemia (serum HbA1C) and serum insulin levels were detected in the treated mice compared to the untreated animals. […] No major changes in the total serum glucose occurred and the insulin levels remained unchanged as the mice adapted to the amount of glucose in their blood. An additional ...

Question: Which “control of glucose and insulin levels, 2–4 weeks” value (2–4 weeks) does the source give for `COc1ccc(OC(=O)N(CC(=O)O)Cc2ccc(OCCc3nc(-c4ccccc4)oc3C)cc2)cc1` [muraglitazar] here?
Answer: The value was “treatment for 2–4 weeks did”.

Question: And the “control of glucose and insulin levels, one week” value (one week)?
Answer: The value was “did not lead to significant effects”.
